{"source": "paper PMC8523698", "about": "“Preclinical characterization of an intravenous coronavirus 3CL protease inhibitor for the potential treatment of COVID19” (Nature Communications, 2021)", "key": {"[1]": {"assay": "Human pharmacokinetic, Ceff and dose predictions", "conditions": "Fig 6C reference line, drawn from 0 to 72 h; head gives 500 nM"}, "MRC-5 cells": {"system": "MRC-5 cells", "assay": "Cytotoxicity in MRC-5 cells"}, "[2]": {"system": "SARS-CoV-2 Washington strain 1 (USA_WA1/2020)", "format": "cell-based", "set-up": "Percent Effect / Percent Effect (EC50 data): scale not given: direction of the effect not stated beside the values"}, "HCoV-229E": {"system": "HCoV-229E", "assay": "Viral CPE assay in MRC-5 cells (CellTiter Glo)", "format": "cell-based"}, "[3]": {"assay": "Rat 24-h continuous intravenous infusion GLP toxicity study", "format": "in vivo, Sprague-Dawley rats", "conditions": "Fig 6C reference line 0 to 72 h"}, "MDR1/P-gp": {"molecular_target": "MDR1/P-gp (Homo sapiens, UniProt P08183)", "sequence (P08183 whole entry)": "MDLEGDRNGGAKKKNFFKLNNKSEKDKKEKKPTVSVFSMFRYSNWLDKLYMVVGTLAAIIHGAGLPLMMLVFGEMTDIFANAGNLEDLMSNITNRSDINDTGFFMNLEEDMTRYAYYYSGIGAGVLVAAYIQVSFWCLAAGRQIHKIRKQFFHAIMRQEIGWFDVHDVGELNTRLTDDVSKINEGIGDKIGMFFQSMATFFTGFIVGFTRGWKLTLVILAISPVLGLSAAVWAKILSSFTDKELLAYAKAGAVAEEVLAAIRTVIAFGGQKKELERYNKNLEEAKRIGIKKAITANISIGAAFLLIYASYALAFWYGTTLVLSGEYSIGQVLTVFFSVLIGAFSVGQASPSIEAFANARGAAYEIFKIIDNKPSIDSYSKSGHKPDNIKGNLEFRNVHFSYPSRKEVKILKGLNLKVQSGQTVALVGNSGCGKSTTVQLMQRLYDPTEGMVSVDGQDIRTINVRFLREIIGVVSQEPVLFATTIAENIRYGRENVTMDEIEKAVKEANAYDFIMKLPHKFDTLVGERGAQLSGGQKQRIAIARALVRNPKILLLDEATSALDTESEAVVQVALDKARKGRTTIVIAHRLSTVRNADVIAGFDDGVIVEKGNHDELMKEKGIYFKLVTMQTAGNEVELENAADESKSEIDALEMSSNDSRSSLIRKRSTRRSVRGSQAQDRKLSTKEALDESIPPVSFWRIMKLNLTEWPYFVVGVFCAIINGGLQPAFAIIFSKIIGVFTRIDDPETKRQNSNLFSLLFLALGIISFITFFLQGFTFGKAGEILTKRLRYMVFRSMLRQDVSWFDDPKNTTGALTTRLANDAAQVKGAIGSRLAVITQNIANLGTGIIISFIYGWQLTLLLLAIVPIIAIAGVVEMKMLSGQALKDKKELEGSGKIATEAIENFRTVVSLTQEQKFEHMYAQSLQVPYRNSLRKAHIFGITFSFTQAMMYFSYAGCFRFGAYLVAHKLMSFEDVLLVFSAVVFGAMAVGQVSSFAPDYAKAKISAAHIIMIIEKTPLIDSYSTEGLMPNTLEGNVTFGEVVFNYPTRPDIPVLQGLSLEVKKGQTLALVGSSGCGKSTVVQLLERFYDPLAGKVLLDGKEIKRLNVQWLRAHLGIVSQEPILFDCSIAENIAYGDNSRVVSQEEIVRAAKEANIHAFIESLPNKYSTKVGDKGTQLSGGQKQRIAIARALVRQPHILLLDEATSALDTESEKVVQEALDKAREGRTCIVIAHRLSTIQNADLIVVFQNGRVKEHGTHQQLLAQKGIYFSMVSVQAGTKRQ", "assay": "Transporter inhibition using membrane vesicles", "conditions": "uptake of N-methyl quinidine by MDR1; control inhibitor concentration 4.000 uM; single replicates"}, "[4]": {"conditions": "read-out: competitive Ki; vendor-verified compound file; ref Simcyp library; cited from earlier work"}}, "note": "Values joined by “and” are separate entries in the source; they are usually repeats but may differ in a detail not shown here. Equal values may be shown once. Read-outs that look alike come from different tables or passages of the source."}
{"smiles": "COc1cccc2[nH]c(C(=O)N[C@@H](CC(C)C)C(=O)N[C@@H](C[C@@H]3CCNC3=O)C(=O)CO)cc12", "note": "[Active]", "values": [{"measurement": "Ceff SARS-COV2 (+P-gp inhib)= 500 nM", "setting": "[1]", "value": 0.5}]}
{"smiles": "COc1cccc2[nH]c(C(=O)N[C@@H](CC(C)C)C(=O)N[C@@H](C[C@@H]3CCNC3=O)C(=O)COP(=O)(O)O)cc12", "note": "[PF-07304814-00]", "values": [{"measurement": "% Well Effect (CC50 data)", "setting": "MRC-5 cells; minus efflux inhibitor, 0.031642 uM", "value": -10.74, "unit": "%"}, {"measurement": "% Well Effect (CC50 data)", "setting": "MRC-5 cells; minus efflux inhibitor, 0.100053 uM", "value": "-6.45% and -4.39%"}, {"measurement": "% Well Effect (CC50 data)", "setting": "MRC-5 cells; minus efflux inhibitor, 3.16311 uM", "value": -8.68, "unit": "%"}, {"measurement": "% Well Effect (CC50 data)", "setting": "MRC-5 cells; minus efflux inhibitor, 10.0018 uM", "value": -6.54, "unit": "%"}, {"measurement": "% Well Effect (CC50 data)", "setting": "MRC-5 cells; plus 0.5 uM efflux inhibitor, 0.031642 uM", "value": "-2.54% and -3.43%"}, {"measurement": "% Well Effect (CC50 data)", "setting": "MRC-5 cells; plus 0.5 uM efflux inhibitor, 0.100053 uM", "value": "-2.51% and -2.24% and 4.92%"}, {"measurement": "% Well Effect (CC50 data)", "setting": "MRC-5 cells; plus 0.5 uM efflux inhibitor, 1.00035 uM", "value": "-1.28% and -4.08%"}, {"measurement": "% Well Effect (CC50 data)", "setting": "MRC-5 cells; plus 0.5 uM efflux inhibitor, 3.16311 uM", "value": "5.87% and 5.13%"}, {"measurement": "% Well Effect (CC50 data)", "setting": "MRC-5 cells; plus 0.5 uM efflux inhibitor, 31.6256 uM", "value": "-2.89% and -4.52%"}, {"measurement": "% Well Effect (CC50 data)", "setting": "MRC-5 cells; plus 0.5 uM efflux inhibitor, 100 uM", "value": "2.77% and -3.47% and 5.60% and -0.62%"}, {"measurement": "Percent Effect", "setting": "[2]; 0.00976562 uM", "value": "0.053% and 0.085%"}, {"measurement": "Percent Effect", "setting": "[2]; 0.0195312 uM", "value": "2.09% and 3.15%"}, {"measurement": "Percent Effect", "setting": "[2]; 0.0390625 uM", "value": "0.085% and 9.35%"}, {"measurement": "Percent Effect", "setting": "[2]; 0.078125 uM", "value": "-0.27% and 0.54%"}, {"measurement": "Percent Effect (EC50 data)", "setting": "[2]; 0.195312 uM", "value": -0.82, "unit": "%"}, {"measurement": "Percent Effect", "setting": "[2]; 0.3125 uM", "value": "2.28% and 1.63%"}, {"measurement": "Percent Effect", "setting": "[2]; 0.390625 uM", "value": "7.76% and 0.81% and 1.70% and 4.09% and 0.21% and 2.38% and 2.51% and 3.73%"}, {"measurement": "Percent Effect (EC50 data)", "setting": "[2]; 0.390625 uM", "value": -0.72, "unit": "%"}, {"measurement": "Percent Effect", "setting": "[2]; 0.625 uM", "value": "-1.46% and -0.53%"}, {"measurement": "Percent Effect (EC50 data)", "setting": "[2]; 0.78125 uM", "value": "8.72% and 9.53%"}, {"measurement": "Percent Effect (EC50 data)", "setting": "[2]; 3.125 uM", "value": "96.73% and 101.34%"}, {"measurement": "Percent Effect (EC50 data)", "setting": "[2]; 5 uM", "value": "98.13% and 94.20%"}, {"measurement": "Percent Effect (EC50 data)", "setting": "[2]; 6.25 uM", "value": "105.65% and 94.43%"}, {"measurement": "Percent Effect (EC50 data)", "setting": "[2]; 25 uM", "value": 105.56, "unit": "%"}, {"measurement": "Percent Effect (EC50 data)", "setting": "[2]; 31.6456 uM", "value": "95.69% and 95.38% and 91.49% and 94.38%"}, {"measurement": "Percent Effect (EC50 data)", "setting": "[2]; 50 uM", "value": 95.66, "unit": "%"}, {"measurement": "Percent Effect (EC50 data)", "setting": "[2]; 100 uM", "value": "87.92% and 94.81% and 91.90% and 95.50%"}, {"measurement": "% Well Effect (EC50 data)", "setting": "HCoV-229E; minus efflux inhibitor, 0.000949 uM", "value": "1.31% and -4.82% and -7.06% and -4.29% and -0.06%"}, {"measurement": "% Well Effect (EC50 data)", "setting": "HCoV-229E; minus efflux inhibitor, 0.300053 uM", "value": "80.07% and 80.97% and 97.35% and 80.44% and 65.29% and 92.74%"}, {"measurement": "% Well Effect (EC50 data)", "setting": "HCoV-229E; minus efflux inhibitor, 0.948767 uM", "value": "81.04% and 93.59% and 91.22% and 85.19% and 91.91% and 88.72%"}, {"measurement": "% Well Effect (EC50 data)", "setting": "HCoV-229E; minus efflux inhibitor, 3 uM", "value": "79.54% and 90.29% and 94.42% and 83.20% and 94.29% and 89.17%"}, {"measurement": "% Well Effect (EC50 data)", "setting": "HCoV-229E; plus 0.5 uM efflux inhibitor, 0.094893 uM", "value": "70.28% and 62.16% and 55.71% and 62.75% and 53.71% and 73.85%"}, {"measurement": "% Well Effect (EC50 data)", "setting": "HCoV-229E; plus 0.5 uM efflux inhibitor, 0.300053 uM", "value": "83.32% and 95.05% and 90.93% and 79.15% and 93.97% and 90.05%"}, {"measurement": "% Well Effect (EC50 data)", "setting": "HCoV-229E; plus 0.5 uM efflux inhibitor, 0.948767 uM", "value": "82.39% and 96.75% and 87.38% and 79.38% and 95.45% and 97.43%"}, {"measurement": "% Well Effect (EC50 data)", "setting": "HCoV-229E; plus 0.5 uM efflux inhibitor, 3 uM", "value": "80.02% and 92.89% and 93.90% and 81.60% and 91.07% and 95.86%"}]}
{"smiles": "COc1cccc2[nH]c(C(=O)N[C@@H](CC(C)C)C(=O)N[C@@H](C[C@@H]3CCNC3=O)C(=O)CO)cc12", "note": "[Pf-5231]", "values": [{"measurement": "Reg tox Day 1 Rat with Pf-5231 Actove (Cave,uM)", "setting": "[3]; Day 1, dosed with Pf-5231, Cave of active", "value": 10.7, "unit": "µM"}]}
{"smiles": "C/C=C/C[C@@H](C)C(=O)[C@H]1C(=O)N[C@@H](C(C)C)C(=O)N(C)CC(=O)N(C)[C@@H](CC(C)C)C(=O)N[C@@H](C(C)C)C(=O)N(C)[C@@H](CC(C)C)C(=O)N[C@@H](C)C(=O)N[C@H](C)C(=O)N(C)[C@@H](CC(C)C)C(=O)N(C)[C@@H](CC(C)C)C(=O)N(C)[C@@H](C(C)C)C(=O)N1C", "note": "[PSC833]", "values": [{"measurement": "% PGP Uptake Activity", "setting": "MDR1/P-gp", "value": "0.2057% (2×) and -0.01029% (2×) and -0.1954% (2×)"}]}
{"smiles": "COc1cccc2[nH]c(C(=O)N[C@@H](CC(C)C)C(=O)N[C@@H](C[C@@H]3CCNC3=O)C(=O)COP(=O)(O)O)cc12", "note": "[Pf-4814]", "values": [{"measurement": "Reg tox Day 1 Rat with Pf-4814 Actove (Cave, uM)", "setting": "[3]; Day 1, dosed with Pf-4814, Cave of active", "value": 10.7, "unit": "µM"}]}
{"smiles": "COc1cccc2[nH]c(C(=O)N[C@@H](CC(C)C)C(=O)N[C@@H](C[C@@H]3CCNC3=O)C(=O)COP(=O)(O)O)cc12", "note": "[PF-073048141]", "values": [{"measurement": "CC50", "setting": "VeroE6-EGFP cells", "value": "> 50", "unit": "µM"}, {"measurement": "CC50", "setting": "VeroE6-EGFP cells; n=2", "value": "> 50", "unit": "µM"}]}
{"smiles": "CC(O)C(C)n1ncn(-c2ccc(N3CCN(c4ccc(OCC5COC(Cn6cncn6)(c6ccc(Cl)cc6Cl)O5)cc4)CC3)cc2)c1=O", "note": "(stereo not drawn) [OH-itraconazole]", "values": [{"measurement": "Ki", "setting": "[4]", "value": 0.0023, "unit": "µM"}]}
